Tests used:
[1] = molecular target: T1, Alpha 2C adrenergic receptor (Homo sapiens, UniProt P18825); experiment: Functional assay in HEK-293 cells (cAMP); assay type: cell-based
T1 construct: expressed in transfected cells; host or cells: HEK-293
T1 sequence (P18825 1-462): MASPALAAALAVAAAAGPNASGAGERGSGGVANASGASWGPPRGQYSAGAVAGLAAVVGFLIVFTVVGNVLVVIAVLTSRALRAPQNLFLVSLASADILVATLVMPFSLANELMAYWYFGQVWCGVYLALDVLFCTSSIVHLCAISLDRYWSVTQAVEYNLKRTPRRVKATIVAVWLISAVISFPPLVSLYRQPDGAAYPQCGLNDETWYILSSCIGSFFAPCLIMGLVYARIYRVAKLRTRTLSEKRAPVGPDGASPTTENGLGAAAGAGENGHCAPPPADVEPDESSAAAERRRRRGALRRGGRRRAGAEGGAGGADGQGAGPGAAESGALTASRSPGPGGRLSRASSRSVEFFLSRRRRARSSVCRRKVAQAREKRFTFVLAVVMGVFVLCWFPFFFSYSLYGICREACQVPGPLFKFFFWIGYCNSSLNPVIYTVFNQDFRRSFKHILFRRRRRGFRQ
Method: (§1) Neuro-receptor binding and functional effects of the “E559 polymorph” was examined by analyzing binding affinity [Ki (nM)], functional agonist activity [EC50 (nM)], and functional antagonist activity [IC50 (nM)] against a panel of key receptors in neurophysiological disorders. Binding and functional assays were performed at “E559 polymorph” concentrations of 0.0003, 0.003, 0.01, 0.03, 0.1, 0.3, 1, and 10 μM. In binding assays, cell membrane homogenates, expressing each receptor target, were incubated with the corresponding radio-ligand in absence or presence of several concentration of the “E559 polymorph” compound. The measurement of binding affinity of the “E559 polymorph” is represented in TABLE XIII by Ki (nM) which was calculated as percent inhibition of the binding of a radioactively labeled reference ligand at each receptor. In functional assays the HEK-293 cells expressing each receptor target were suspended in buffer and distribute in microplates and incubated for 30 minutes at room temperature or 37° C. in the presence of buffer alone (basal control), the reference agonist or antagonist, or the “E559 polymorph. Following incubation, the cells were lysed and the appropriate fluorescent probe (Ca2+ flux, cAMP, or IP1) were added for 60 minutes to measure the fluorescence transfer at the appropriate wavelength using a microplate reader. The cellular agonist effect (EC50) was calculated as a percent of control response to a known reference agonist and the cellular antagonist effect (IC50) was calculated as a percent inhibition of control reference agonist response for each receptor.

[2] = molecular target: T2, Alpha 2B adrenergic receptor (Homo sapiens, UniProt P18089); experiment: Functional assay in HEK-293 cells (cAMP); assay type: cell-based
T2 construct: expressed in transfected cells; host or cells: HEK-293
T2 sequence (P18089 1-450): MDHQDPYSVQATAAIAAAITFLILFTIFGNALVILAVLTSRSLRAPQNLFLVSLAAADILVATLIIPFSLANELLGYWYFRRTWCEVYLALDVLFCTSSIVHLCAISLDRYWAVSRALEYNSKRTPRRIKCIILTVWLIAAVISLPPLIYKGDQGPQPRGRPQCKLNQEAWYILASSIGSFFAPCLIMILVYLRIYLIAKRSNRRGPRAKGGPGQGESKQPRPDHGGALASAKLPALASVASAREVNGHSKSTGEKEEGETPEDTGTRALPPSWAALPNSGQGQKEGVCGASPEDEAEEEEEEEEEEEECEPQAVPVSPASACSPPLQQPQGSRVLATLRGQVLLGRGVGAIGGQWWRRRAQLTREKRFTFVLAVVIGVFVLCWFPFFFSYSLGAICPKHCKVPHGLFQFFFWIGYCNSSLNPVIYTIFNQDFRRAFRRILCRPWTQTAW
Method: as §1

[3] = molecular target: T3, Serotonin 7 receptor (5-HT7R) (Homo sapiens, UniProt P34969); experiment: Functional assay in HEK-293 cells (cAMP); assay type: cell-based
T3 construct: expressed in transfected cells; host or cells: HEK-293
T3 sequence (P34969 whole entry): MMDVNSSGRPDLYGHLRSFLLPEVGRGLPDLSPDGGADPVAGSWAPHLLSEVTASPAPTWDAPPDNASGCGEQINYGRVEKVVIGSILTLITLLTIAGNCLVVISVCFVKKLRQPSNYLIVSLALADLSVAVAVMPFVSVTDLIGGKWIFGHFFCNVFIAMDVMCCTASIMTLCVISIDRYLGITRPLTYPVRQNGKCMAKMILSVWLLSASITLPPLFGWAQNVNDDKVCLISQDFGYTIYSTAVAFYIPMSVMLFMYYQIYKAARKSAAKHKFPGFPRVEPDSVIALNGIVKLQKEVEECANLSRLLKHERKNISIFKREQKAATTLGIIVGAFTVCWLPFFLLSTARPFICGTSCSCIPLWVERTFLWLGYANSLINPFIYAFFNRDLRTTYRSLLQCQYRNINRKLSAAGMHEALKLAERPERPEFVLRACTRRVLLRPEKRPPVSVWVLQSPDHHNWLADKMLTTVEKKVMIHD
Method: as §1

[4] = molecular target: T4, Serotonin 1A receptor (5-HT1AR) (Homo sapiens, UniProt P08908); experiment: Functional assay in HEK-293 cells (Ca2+ flux); assay type: cell-based
T4 construct: expressed in transfected cells; host or cells: HEK-293
T4 sequence (P08908 1-422): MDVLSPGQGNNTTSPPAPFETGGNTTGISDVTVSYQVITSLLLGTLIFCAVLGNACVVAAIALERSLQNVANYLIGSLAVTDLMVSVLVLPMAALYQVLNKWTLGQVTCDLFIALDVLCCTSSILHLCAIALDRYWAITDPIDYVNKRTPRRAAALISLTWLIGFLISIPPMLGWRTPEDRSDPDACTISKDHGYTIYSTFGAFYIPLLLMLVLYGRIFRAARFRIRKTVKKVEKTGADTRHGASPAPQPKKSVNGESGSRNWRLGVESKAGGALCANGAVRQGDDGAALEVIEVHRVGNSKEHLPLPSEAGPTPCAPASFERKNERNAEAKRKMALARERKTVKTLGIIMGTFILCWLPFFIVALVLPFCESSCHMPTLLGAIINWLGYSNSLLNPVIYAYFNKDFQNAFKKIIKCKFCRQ
Method: as §1

[5] = molecular target: T5, Alpha 2A adrenergic receptor (Homo sapiens, UniProt P08913); experiment: Functional assay in HEK-293 cells (Ca2+ flux); assay type: cell-based
T5 construct: expressed in transfected cells; host or cells: HEK-293
T5 sequence (P08913 1-465): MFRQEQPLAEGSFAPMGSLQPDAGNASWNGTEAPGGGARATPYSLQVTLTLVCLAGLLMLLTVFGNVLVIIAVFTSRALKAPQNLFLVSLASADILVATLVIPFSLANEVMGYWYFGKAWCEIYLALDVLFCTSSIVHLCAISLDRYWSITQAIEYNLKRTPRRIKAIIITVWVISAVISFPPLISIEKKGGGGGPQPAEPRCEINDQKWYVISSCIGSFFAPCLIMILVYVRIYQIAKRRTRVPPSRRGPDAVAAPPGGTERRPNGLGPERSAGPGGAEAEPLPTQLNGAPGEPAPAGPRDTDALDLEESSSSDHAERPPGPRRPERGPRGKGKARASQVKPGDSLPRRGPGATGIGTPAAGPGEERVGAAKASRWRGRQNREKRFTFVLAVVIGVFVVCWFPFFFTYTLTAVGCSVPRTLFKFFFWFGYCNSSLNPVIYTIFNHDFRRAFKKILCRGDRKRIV
Method: as §1

D1 dopamine receptor = D1 dopamine receptor (Homo sapiens, UniProt P21728); experiment: Radioligand binding, cell membrane homogenates; set-up: expressed in transfected cells; host or cells: HEK-293
D1 dopamine receptor, sequence (P21728 whole entry): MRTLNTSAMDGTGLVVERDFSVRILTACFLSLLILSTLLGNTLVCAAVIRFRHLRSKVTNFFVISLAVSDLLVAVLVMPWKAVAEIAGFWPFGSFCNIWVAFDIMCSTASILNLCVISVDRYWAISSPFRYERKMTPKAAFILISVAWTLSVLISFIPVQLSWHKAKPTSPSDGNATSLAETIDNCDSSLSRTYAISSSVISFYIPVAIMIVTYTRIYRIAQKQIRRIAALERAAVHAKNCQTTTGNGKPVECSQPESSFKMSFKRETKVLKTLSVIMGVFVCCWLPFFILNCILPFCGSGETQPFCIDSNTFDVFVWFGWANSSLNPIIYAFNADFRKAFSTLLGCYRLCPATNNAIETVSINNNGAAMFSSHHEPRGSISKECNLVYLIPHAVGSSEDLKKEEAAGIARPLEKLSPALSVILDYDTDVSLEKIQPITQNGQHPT
Method: Neuro-receptor binding and functional effects of the “E559 polymorph” was examined by analyzing binding affinity [Ki (nM)], functional agonist activity [EC50 (nM)], and functional antagonist activity [IC50 (nM)] against a panel of key receptors in neurophysiological disorders. Binding and functional assays were performed at “E559 polymorph” concentrations of 0.0003, 0.003, 0.01, 0.03, 0.1, 0.3, 1, and 10 μM. In binding assays, cell membrane homogenates, expressing each receptor target, were incubated with the corresponding radio-ligand in absence or presence of several concentration of the “E559 polymorph” compound. The measurement of binding affinity of the “E559 polymorph” is represented in TABLE XIII by Ki (nM) which was calculated as percent inhibition of the binding of a radioactively labeled reference ligand at each receptor. […] Following incubation, the cells were lysed and the appropriate fluorescent probe (Ca2+ flux, cAMP, or IP1) were added for 60 minutes to measure the fluorescence transfer at the appropriate wavelength using a microplate reader. The cellular agonist effect (EC50) was calculated as a percent of control response to a known reference agonist and the cellular antagonist effect (IC50) was calculated as a percent inhibition of control reference agonist response for each receptor.

CCN(CC)C(=O)[C@@H]1C=C2c3cccc4[nH]c(Br)c(c34)C[C@H]2N(C)C1 [E559, (5R, 8R)-2-Bromo-9,10-didehydro-N,N-diethyl-6-methylergoline-8-carboxamide hemi-D-tartrate]
EC50 [1]: 0.73 µM
IC50 [1]: > 10 µM
EC50 [2]: > 10 µM
IC50 [2]: 3.6 µM
EC50 [3]: > 10 µM
IC50 [3]: 0.24 µM
EC50 [4]: 3 µM
IC50 [4]: > 10 µM
EC50 [5]: > 10 µM
IC50 [5]: 0.26 µM
Ki (D1 dopamine receptor): 0.025 µM
